What is called EC50 is the concentration needed to bring the measured effect to its halfway point.

Assay [1] relates to dopaminergic neuronal cell line. The assay can be described thus: High glutamate-induced oxidative stress assay (HGOS). It is filed as cell-based. The settings on record: Mus musculus; 30 mM glutamate, 16 hrs; read-out: EC50, protection against HGOS cell injury and cell death. From the text:
Protection against redox stress can be evaluated in cell culture using high glutamate induced oxidative stress (HGOS) in mouse dopaminergic cell lines. The cytotoxic effect of glutamate is not due to excitotoxicity, as this cell line is devoid of inotropic glutamate receptors. Rather, the glutamate-induced toxicity of dopaminergic cells is associated with an inhibition of cystine transport which subsequently leads to depletion of intracellular glutathione (GSH) levels (Murphy T. H., et al. Neuron 2, 1547-1558, 1989), activation of neuronal 12-lipoxygenase (Li, Y. et al., Neuron 19, 453-463, 1997), increased ROS production (Tan S. et al., J. Cell Biol. 141, 1423-1432, 1998) and elevated intracellular Cat^2+ (Li, Y. et al., see supra). Some molecules were measured for their ability to protect cells against glutamate-induced stress and the assay is detailed in Examples.
This procedure was used to induce high glutamate-induced oxidative stress (HGOS) in a dopaminergic neuronal cell line. Using this assay the potency and efficacy of test articles against HGOS neuronal cell injury and cell death was established in a high throughput manner.
• Dopaminergic neuronal cell lines • DMEM-No Glucose (Life Technologies Cat #11966-025) • L-glutamine (Life Technologies Cat #25030-081) • L-glutamic acid, monosodium salt (Sigma Cat #G5889) • D-glucose (Sigma Cat #G-6151) • 10×HBSS buffer (pH 7.4) (950 ml Pyrogen-free water, 2.44 g/L MgCl2.6H20, 3.73 g/L KCl, 59.58 g/L Hepes, 58.44 g/L NaCl, 1.36 g/L KH2PO4, 1.91 g/L CaCl2.2H2O and pH to […] with HCl) • Cell Tracker Green fluorescent dye (Molecular Probes, Cat #2925). Prepare a 5NM solution in pre-warmed HBSS just prior to use. • Sterile 96-well plates precoated with poly-D-lysine (Corning Catalog #3665) • 96-well deep well mother plate, DyNA Block 1000 (VWR Catalog #40002-008) Neuronal Cells
The cells were seeded into 96-well plates at a density of 2000 per well and left to grow for 72 hours in a 33° C. incubator with 5% CO2 in air atmosphere. The passage number of the cells for each assay experiment were no later than p11 in order to minimize experimental variation.
All compounds were dissolved in DMEM-No Glu containing 1 mM glucose, 30 mM glutamate and 1× Pen/Strep. DMEM-No Glu with 1 mM glucose and 1× P/S was used as the negative control, DMEM-No Glucose with 1 mM glucose, […] glutamate was used as a positive control and 100 NM Glutathione was added to the positive control as a standard. All of the procedures for this involving the making and dilution of compounds were performed using aseptic conditions and with minimal light.
The plates were removed from the incubator and examined under the microscope for morphological appearance and density. Using an aseptic technique and an 8-channel aspirator the media was carefully removed from the cells and replaced with 200 μI of 1×HBSS. This was done as quickly as possible to prevent the cells drying out. The plates were then placed in the humidified 37° C. incubators of the Biomek 2000 Side Loader. Four plates were washed at a time so as to minimize the time that the cells were sitting in 1×HBSS prior to addition of the compound test solution. Experimental Setup
The Beckman Biomek workstations were used to load the compounds and controls from the mother plates onto the cell plates that were prewashed with HBSS under sterile conditions. The plates were incubated in the upper HTS incubator at 37° C. in 5% CO2 for exactly 16 hrs. The following day, using the Beckman Biomek workstations, the plates were removed from the incubator. Using Cell Tracker Addition, the compounds were removed from the plates, washed once with […] of pre-warmed 1×HBSS and then 100 μL of 5 μM Cell Tracker Green was added to each well. The plates were incubated at 37° C. for 30 min to allow the dye to enter the cell and be cleaved by the esterases. […]

Assay [2] deals with T1, porcine leukocyte 12/15-lipoxygenase (Sus scrofa, UniProt P16469).
T1 construct: purchased Cayman 60300
T1 sequence (P16469 1-663): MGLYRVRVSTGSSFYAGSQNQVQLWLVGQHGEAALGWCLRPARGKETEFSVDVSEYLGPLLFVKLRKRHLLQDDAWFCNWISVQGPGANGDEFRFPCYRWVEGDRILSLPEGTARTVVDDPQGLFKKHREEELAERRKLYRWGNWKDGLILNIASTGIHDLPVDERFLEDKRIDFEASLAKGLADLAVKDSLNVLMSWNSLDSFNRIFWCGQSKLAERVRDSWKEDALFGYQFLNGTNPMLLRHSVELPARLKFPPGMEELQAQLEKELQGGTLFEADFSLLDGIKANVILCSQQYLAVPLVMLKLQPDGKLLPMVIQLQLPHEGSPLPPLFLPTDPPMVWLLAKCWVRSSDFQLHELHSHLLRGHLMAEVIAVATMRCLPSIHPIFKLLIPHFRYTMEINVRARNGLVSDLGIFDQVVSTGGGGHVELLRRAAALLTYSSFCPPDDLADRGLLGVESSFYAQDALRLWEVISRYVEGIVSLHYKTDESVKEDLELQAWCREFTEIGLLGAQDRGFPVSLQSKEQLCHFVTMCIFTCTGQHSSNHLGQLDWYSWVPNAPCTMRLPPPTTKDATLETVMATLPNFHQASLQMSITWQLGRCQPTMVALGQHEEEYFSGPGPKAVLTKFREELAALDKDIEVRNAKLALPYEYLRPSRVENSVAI
The assay can be described thus: 12/15-Lipoxygenase enzyme assay. Format: biochemical. The settings on record: 70 μM arachidonic acid, pH 7.4, 10 minute incubation; read-out: IC50, inhibition of 12/15-Lipoxygenase. From the text:
(§1) In vitro evaluation of the ability of a composition to inhibit the enzymes 5-lipoxygenase, 15-lipoxygenase, or 12/15 lipoxygenase as described in Walidge, N. B. et al Anal. Biochem., 231: 354-358 (1995) using a high throughput colorimetric method; as well as in vitro evaluation of inhibiting LTB4 is described in Examples.
This procedure was used for measuring the enzymatic activity of porcine leukocyte 12/15-lipoxygenase using a colorimetric method based on the ferric oxidation of xylenol orange.
• 96 well flat bottom microfilter plates (VWR, Catalog #62402-933 9295) • Lipoxygenase screening assay buffer (Cayman, Catalog #760710) • Porcine leukocyte 12/15-lipoxygenase (Cayman, Catalog #60300) • Arachidonic Acid (Sigma, Catalog #A3555) • Xylenol orange tetrasodium salt (Aldrich, Catalog #227854) • Iron (II) sulfate heptahydrate (Sigma, Catalog #F7002) • Sulfuric acid (95-98%) [18M] • Methanol Procedure
(§2) Porcine Leukocyte 12/15-lipoxygenase (Cayman Cat #60300) was used in this assay. Test compound and/or vehicle was added to 1.3 U 12/15-lipoxygenase in 50 mM Tris-HCl buffer, pH 7.4. The reaction was initiated by addition of 70 μM arachidonic acid in Tris-HCl buffer, pH 7.4, and terminated after a 10 minute incubation at room temperature by addition of FOX reagent (25 mM sulphuric acid, 100 μM xylenol orange, 100 μM iron (II) sulphate, methanol:water 9:1). The yellow color of acidified xylenol orange was converted to a blue color by the lipid hydroperoxide-mediated oxidation of Fe 2+ ions and the interaction of the resulting Fe 3+ ions with the dye. The complex was allowed to form during a 1 hour incubation at room temperature with shaking. Absorbance of the Fe 3+ complex was then measured at […] using a spectrophotometer.
(§3) Negative controls contained enzyme during the incubation step but substrate was not added until after the FOX reagent.
Compounds are screened at 5 concentrations in triplicate starting at 10 μM

In assay [3] the target is T2, human recombinant 5-lipoxygenase (Homo sapiens, UniProt P09917).
T2 construct: purchased Cayman 60402
T2 sequence (P09917 1-674): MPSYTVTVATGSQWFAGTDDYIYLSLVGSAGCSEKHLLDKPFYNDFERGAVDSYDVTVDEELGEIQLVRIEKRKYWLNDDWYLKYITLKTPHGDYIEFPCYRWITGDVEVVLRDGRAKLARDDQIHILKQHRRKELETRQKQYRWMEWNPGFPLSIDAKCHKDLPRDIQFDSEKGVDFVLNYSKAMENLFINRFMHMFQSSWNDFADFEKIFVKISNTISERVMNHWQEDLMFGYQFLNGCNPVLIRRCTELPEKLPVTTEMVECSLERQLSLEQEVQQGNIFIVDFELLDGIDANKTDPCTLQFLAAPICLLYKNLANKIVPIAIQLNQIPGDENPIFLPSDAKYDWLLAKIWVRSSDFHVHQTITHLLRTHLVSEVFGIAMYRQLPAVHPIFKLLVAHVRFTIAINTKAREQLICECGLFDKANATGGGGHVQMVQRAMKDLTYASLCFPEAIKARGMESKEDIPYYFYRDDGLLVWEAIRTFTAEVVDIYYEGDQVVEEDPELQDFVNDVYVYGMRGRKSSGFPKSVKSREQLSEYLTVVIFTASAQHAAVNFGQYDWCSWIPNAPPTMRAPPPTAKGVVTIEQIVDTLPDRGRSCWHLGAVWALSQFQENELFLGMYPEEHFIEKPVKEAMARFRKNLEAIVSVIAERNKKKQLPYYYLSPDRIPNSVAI
The assay can be described thus: 5-Lipoxygenase enzyme assay. It is filed as biochemical. The note with it: 70 μM arachidonic acid, pH 7.4, 10 minute incubation; read-out: IC50, inhibition of 5-Lipoxygenase.
Text: as §1
This procedure was used for measuring the enzymatic activity of human recombinant 5-lipoxygenase using a colorimetric method based on the ferric oxidation of xylenol orange.
• 96 well flat bottom microfilter plates (VWR, Catalog #62402-933 9295) • Lipoxygenase screening assay buffer (Cayman, Catalog #760710) • Human recombinant 5-lipoxygenase (Cayman, Catalog #60402) • Arachidonic Acid (Sigma, Catalog #A3555) • Xylenol orange tetrasodium salt (Aldrich, Catalog #227854) • Iron (II) sulfate heptahydrate (Sigma, Catalog #F7002) • Sulfuric acid (95-98%) [18M]—Methanol Procedure
as §2, with “Human recombinant 5-lipoxygenase” for “Porcine Leukocyte 12/15-lipoxygenase”, “#60402)” for “#60300)”, “The test” for “Test”, “0.51-1 5-lipoxygenase” for “1.3 U 12/15-lipoxygenase”
as §3
Compounds were screened at 5 concentrations in triplicate starting at 10 μM

Turning to `CCCC1=NN(C)C(=O)C1=Cc1c(O)c(C)c(C)c2c1CCC(C)(C)O2` [4-(6-Hydroxy-2,2,7,8-tetramethyl-chroman-5-ylmethylene)-2-methyl-5-propyl-2,4-dihydro-pyrazol-3-one], in assay [1], the EC50 was < 5 µM.
In the case of `Cc1cc(C2(C)CCc3c(C)c(O)c(C)c(Cl)c3O2)c(C)s1` (centres unmarked) [8-Chloro-2-(2,5-dimethyl-thiophen-3-yl)-2,5,7-trimethyl-chroman-6-ol], in assay [2], the IC50 was < 1 µM.
As to `Cc1c(C)c2c(c(-c3ccncc3)c1O)CCC(C)(C)O2` [2,2,7,8-Tetramethyl-5-pyridin-4-yl-chroman-6-ol], the EC50 in assay [1] is < 5 µM.
On to `COc1cc(-c2c(O)c(C)c(C)c3c2CCC(C)(C)O3)cc(OC)c1OC` [2,2,7,8-Tetramethyl-5-(3,4,5-trimethoxy-phenyl)-chroman-6-ol], for which the IC50 in assay [3] was < 1 µM.
Take `Cc1c(C)c2c(c(-c3ccc(N(C)C)cc3)c1O)CCC(C)(C)O2` [5-(4-Dimethylamino-phenyl)-2,2,7,8-tetramethyl-chroman-6-ol]: in assay [1], the EC50 is < 5 µM.
Turning to `Cc1c(O)cc(-c2c(O)c(C)c(C)c3c2CCC(C)(C)O3)c(O)c1C` [5-(6-Hydroxy-2,2,7,8-tetramethyl-chroman-5-yl)-2,3-dimethyl-benzene-1,4-diol], in assay [3], the IC50 is < 1 µM.
Turning to `CC(=CCc1c(O)c(C)c(C)c2c1CCC(C)(C)O2)CCCl` [5-(5-Chloro-3-methyl-pent-2-enyl)-2,2,7,8-tetramethyl-chroman-6-ol], the IC50 in assay [2] is < 1 µM.
Turning to `COCOc1cc2c(c(C)c1C)OC(C)(CCC=C1SC(=O)NC1=O)CC2` (centres unmarked) [5-[3-(6-Methoxymethoxy-2,7,8-trimethyl-chroman-2-yl)-propylidene]-thiazolidine-2,4-dione], in assay [1], the EC50 is < 5 µM.
As to `Cc1c(C)c2c(c(Cl)c1O)CCC(C)(c1cccs1)O2` (centres unmarked) [5-Chloro-2,7,8-trimethyl-2-thiophen-2-yl-chroman-6-ol], the IC50 in assay [2] was < 1 µM.
For the compound `Cc1c(C)c2c(c(-c3ccc(Cl)cc3)c1O)CCC(C)(C)O2` [5-(4-Chloro-phenyl)-2,2,7,8-tetramethyl-chroman-6-ol], the IC50 in assay [3] was < 1 µM.
For the compound `Cc1cc2c(c(C)c1O)CCC(CCCCl)(c1cccs1)O2` (centres unmarked) [2-(3-Chloro-propyl)-5,7-dimethyl-2-thiophen-2-yl-chroman-6-ol], the IC50 in assay [2] was < 1 µM.
Turning to `Cc1c(C)c2c(c(-c3ccccc3)c1O)CCC(C)(C)O2` [2,2,7,8-Tetramethyl-5-phenyl-chroman-6-ol], in assay [1], the half-maximal effective concentration (EC50) was < 5 µM.
With `Cc1c(C)c2c(c(-c3ccc(C(C)(C)C)cc3)c1O)CCC(C)(C)O2` [5-(4-tert-Butyl-phenyl)-2,2,7,8-tetramethyl-chroman-6-ol], the IC50 in assay [3] is < 1 µM.
For the compound `Cc1c(C)c2c(c(-c3ccc(S(C)(=O)=O)cc3)c1O)CCC(C)(C)O2` [5-(4-Methanesulfonyl-phenyl)-2,2,7,8-tetramethyl-chroman-6-ol], the EC50 in assay [1] is < 5 µM.

The values are drawn from patent publication US8791155B2, “Chroman derivatives” (Edison Pharmaceuticals, Inc., priority 2003, dated 2014).
